Laboratory results taken from patent US10322138B2, “Treatment of depressive disorders” (Pherin Pharmaceuticals, Inc., priority 2012, dated 2019).
Like-named read-outs stand apart in the source and are kept apart here.

Assays:
[1] = test system: isolated human nasal chemosensory neurons; assay: Electrophysiology: inward currents in isolated nasal chemosensory neurons; format: cell-based
[2] = test system: nasal septal chemosensory epithelium; assay: Electrophysiology: electrotonic depolarization of chemosensory epithelium; format: cell-based, human
estrogen receptors = assay: In vitro agonist/antagonist activity on steroid receptors
androgen receptors = androgen receptors (Homo sapiens, UniProt P10275); assay: as above
progestin receptors = progestin receptors (Homo sapiens, UniProt P06401); assay: as above
glucocorticoid receptors = glucocorticoid receptors (Homo sapiens, UniProt P04150); assay: as above
[3] = test system: receptors of indoleamine, monoamines, ion channels, receptors, peptides, opioid, glutamate neurotransmitter, steroid hormones, or glucocorticoid receptors; assay: In vitro receptor affinity panel; format: binding
[4] = Ames reverse mutation assay
bone marrow = assay: In vivo bone marrow micronucleus test
pregnant rats = assay: Reproductive toxicity study; format: in vivo, rat; conditions: intravenous doses up to 2.5 mg/Kg/day during organogenesis
pregnant rabbits = assay: Reproductive toxicity study; format: in vivo, rabbit; conditions: intravenous doses up to 2.5 mg/Kg/day during organogenesis
[5] = format: in vivo; conditions: rat, repeated intranasal doses at 10 mg/Kg
mice of both sexes = assay: Intraperitoneal toxicity, 7-day observation; format: in vivo; conditions: intraperitoneal up to 200 mg/Kg
rats of both sexes = format: in vivo; conditions: intravenous 1 mg/Kg
mice = assay: Intranasal and intravenous toxicity up to 2.5 mg/Kg; format: in vivo, mouse; conditions: intranasal and intravenous up to 2.5 mg/Kg
rats [6] = assay: as above; format: in vivo, rat; conditions: intranasal and intravenous up to 2.5 mg/Kg
rabbits = assay: as above; format: in vivo, rabbit; conditions: intranasal and intravenous up to 2.5 mg/Kg
dogs [7] = assay: as above; format: in vivo, dog; conditions: intranasal and intravenous up to 2.5 mg/Kg
rats [8] = assay: One-month intranasal toxicity; format: in vivo, rat; conditions: intranasal up to 50 μg/day for one month
dogs [9] = assay: 28-day intranasal toxicity; format: in vivo, dog; conditions: intranasal up to 300 μg/day for 28 days
[10] = test system: healthy volunteers of both sexes; assay: Pilot trials, nasal administration; format: in vivo, human
healthy individuals = assay: Phase 1 open-label, flexible dose-escalation trial; format: in vivo, human
Procedure: In a Phase 1 open-label, flexible dose-escalation trial, the pregn-4-en-20-yn-3-one was formulated as an aqueous solution at 8 μg/mL, with 2% propylene glycol and 2% ethanol, and was administered with a Valois intranasal metered spray pump delivering 50 μL, so that the pregn-4-en-20-yn-3-one was administered at 400 ng/spray. The low-dose group received 400, 400, 1600, 1600, 2800, and 2800 ng/day over the six-day period of the trial, while the high-dose group received 4000, 4000, 5200, 5200, 6400, and 6400 ng/day over the six-day period of the trial. The trial enrolled 10 individuals, 7 male and 3 female, between 21 and 38 years old, healthy, free of any Axis I diagnosis according to the DSM-IV-TR, and not taking any central nervous system medications.

[11] = test system: individuals meeting the diagnostic criteria for MDD; assay: Phase 2 three-arm, double-blind, randomized trial in MDD; format: in vivo, human; conditions: for decrease in average HRSD-17 score from baseline (standard deviation): eight weeks of treatment; for Cohen's d relative to placebo, HRSD-17 item 4 / Cohen's d relative to placebo, HRSD-17 score / decrease in HRSD-17 item 4 (initial insomnia) from baseline: eight weeks
Procedure: In a Phase 2 three-arm, double-blind, randomized trial, individuals received either placebo (a nasal solution containing no pregn-4-en-20-yn-3-one), 3200 ng/day of pregn-4-en-20-yn-3-one (“low dose”), or 6400 ng/day of pregn-4-en-20-yn-3-one (“high dose”), formulated and administered as in the Phase 1 trial. The placebo group and the low dose group administered two sprays per nostril twice/day, the high dose group administered two sprays per nostril four times/day. The trial enrolled 30 individuals, male and female between 18 and 60 years old, meeting the diagnostic criteria for MDD and free of any other Axis I diagnosis according to the DSM-IV-TR, non-suicidal, and not taking any central nervous system medications (including natural products such as St. John's wort). The individuals were required to have a minimum score on the Hamilton Rating Scale for Depression (HRSD-17), a 17-item scale designed for completion by a health professional following a structured interview with the individual, of at least 17, meaning that they were at least moderately depressed; and the primary efficacy criterion in the trial was reduction in HRSD-17 score from baseline.
The trial included ten weekly visits. At the first (screening) visit, the individuals were assessed for depression symptoms and randomized into treatment groups. […] At the second (baseline) visit, they were assessed, trained in self-administration of the nasal spray, and began self-administration of their trial medication. There were seven visits at which they were assessed while on treatment with their trial medication; and one follow-up visit one week after the end of medication administration at which they were given final assessments.
[Cohen's d is the mean difference between groups divided by the pooled standard deviation. For behavioral measures, a Cohen's d of 0.2 represents a small treatment effect; 0.5, a medium treatment effect; and 0.8, a large treatment effect.] […] HRSD-17 item 4 measures initial insomnia (difficulty in falling asleep early in the night), and is scored 0, for no difficulty falling asleep; 1, for complaints of occasional difficulty falling asleep, i.e. more than ½ hour; and 2, complaints of nightly difficulty falling asleep.

[12] = test system: individuals diagnosed with MDD and insomnia; conditions: cited from earlier work
[13] = Phase 1, intranasal 400-6400 ng/day over six days
[14] = escitalopram plus cognitive behavioral therapy for insomnia
[15] = escitalopram plus control quasi-desensitization therapy

glucocorticoid receptors, sequence (P04150 whole entry): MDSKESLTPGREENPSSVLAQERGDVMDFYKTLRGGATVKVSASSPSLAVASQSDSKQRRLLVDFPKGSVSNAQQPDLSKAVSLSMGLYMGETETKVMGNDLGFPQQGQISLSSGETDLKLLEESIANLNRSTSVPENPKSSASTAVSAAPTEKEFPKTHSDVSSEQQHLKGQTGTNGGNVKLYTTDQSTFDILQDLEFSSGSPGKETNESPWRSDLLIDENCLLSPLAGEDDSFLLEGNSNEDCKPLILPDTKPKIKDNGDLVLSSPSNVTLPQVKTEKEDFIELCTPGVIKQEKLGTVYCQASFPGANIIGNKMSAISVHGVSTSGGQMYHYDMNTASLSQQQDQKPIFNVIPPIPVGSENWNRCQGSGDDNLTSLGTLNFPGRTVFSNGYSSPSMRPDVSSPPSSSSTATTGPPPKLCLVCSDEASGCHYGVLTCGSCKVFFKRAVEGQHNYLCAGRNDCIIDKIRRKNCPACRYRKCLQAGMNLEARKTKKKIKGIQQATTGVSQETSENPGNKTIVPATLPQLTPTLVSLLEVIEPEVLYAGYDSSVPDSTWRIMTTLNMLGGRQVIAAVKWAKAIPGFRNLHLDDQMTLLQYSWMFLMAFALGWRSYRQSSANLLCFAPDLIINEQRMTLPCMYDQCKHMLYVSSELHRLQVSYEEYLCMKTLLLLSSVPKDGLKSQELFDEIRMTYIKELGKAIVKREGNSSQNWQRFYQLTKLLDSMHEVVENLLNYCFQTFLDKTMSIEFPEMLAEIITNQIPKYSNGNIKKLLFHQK
androgen receptors, sequence (P10275 whole entry): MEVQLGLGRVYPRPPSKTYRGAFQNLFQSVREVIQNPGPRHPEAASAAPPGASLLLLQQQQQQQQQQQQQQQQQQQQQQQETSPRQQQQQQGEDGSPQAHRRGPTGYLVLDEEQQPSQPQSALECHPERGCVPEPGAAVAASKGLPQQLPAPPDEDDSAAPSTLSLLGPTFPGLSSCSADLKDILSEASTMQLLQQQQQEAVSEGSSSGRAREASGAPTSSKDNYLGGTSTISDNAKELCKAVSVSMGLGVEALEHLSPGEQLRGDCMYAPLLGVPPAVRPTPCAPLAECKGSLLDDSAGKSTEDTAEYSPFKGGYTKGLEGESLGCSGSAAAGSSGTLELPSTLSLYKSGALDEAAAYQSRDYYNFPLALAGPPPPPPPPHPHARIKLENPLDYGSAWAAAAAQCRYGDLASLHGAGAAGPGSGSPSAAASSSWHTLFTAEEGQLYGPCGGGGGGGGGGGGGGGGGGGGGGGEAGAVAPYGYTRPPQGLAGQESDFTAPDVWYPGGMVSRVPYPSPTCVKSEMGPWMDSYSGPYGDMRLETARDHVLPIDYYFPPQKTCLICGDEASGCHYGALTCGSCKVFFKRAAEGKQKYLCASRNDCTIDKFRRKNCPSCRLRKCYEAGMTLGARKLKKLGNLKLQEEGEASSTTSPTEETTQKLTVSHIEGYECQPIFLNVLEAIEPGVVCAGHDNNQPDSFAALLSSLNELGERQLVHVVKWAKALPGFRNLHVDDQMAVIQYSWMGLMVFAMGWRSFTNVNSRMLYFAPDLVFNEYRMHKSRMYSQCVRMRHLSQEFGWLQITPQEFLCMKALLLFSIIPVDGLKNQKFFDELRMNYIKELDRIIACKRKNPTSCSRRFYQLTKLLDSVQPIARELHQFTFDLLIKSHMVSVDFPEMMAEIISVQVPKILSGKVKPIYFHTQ
progestin receptors, sequence (P06401 whole entry): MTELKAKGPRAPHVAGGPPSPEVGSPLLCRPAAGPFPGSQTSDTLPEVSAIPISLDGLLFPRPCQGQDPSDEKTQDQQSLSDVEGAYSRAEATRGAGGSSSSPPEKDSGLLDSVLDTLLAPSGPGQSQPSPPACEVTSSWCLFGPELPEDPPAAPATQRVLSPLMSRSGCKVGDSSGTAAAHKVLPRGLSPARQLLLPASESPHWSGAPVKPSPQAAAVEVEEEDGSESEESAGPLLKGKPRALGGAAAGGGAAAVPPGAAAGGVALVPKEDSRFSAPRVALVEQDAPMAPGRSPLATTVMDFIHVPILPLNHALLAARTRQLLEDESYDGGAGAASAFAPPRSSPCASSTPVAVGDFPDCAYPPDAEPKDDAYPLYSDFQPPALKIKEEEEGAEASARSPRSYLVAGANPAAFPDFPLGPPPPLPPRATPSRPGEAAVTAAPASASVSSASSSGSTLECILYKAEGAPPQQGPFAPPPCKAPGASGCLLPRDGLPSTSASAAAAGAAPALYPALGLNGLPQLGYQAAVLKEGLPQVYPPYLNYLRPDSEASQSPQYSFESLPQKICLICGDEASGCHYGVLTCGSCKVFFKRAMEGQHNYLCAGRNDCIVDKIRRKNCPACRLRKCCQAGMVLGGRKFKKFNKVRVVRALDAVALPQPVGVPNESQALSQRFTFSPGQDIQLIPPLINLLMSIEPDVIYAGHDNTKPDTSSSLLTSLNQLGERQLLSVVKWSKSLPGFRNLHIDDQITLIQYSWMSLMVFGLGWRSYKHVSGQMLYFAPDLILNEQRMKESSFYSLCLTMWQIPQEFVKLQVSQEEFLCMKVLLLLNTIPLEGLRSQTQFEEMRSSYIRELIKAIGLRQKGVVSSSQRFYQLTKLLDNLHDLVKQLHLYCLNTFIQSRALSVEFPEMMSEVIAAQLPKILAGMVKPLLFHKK

C#C[C@H]1CC[C@H]2[C@@H]3CCC4=CC(=O)CC[C@]4(C)[C@H]3CC[C@]12C [pregn-4-en-20-yn-3-one, Pregn-4-en-20-yn-3-one]
inward currents in isolated human nasal chemosensory neurons [1]: induced inward currents | concentration of maximal response (amplitude) ([1]; amplitude increased depending on concentration): 10^−7 to 10^−5 M | electrotonic depolarization of the nasal septal chemosensory epithelium [2]: electrotonic depolarization | agonist or antagonist activity (estrogen receptors): no agonist or antagonist activity | agonist or antagonist activity (androgen receptors): no agonist or antagonist activity | agonist or antagonist activity (progestin receptors): no agonist or antagonist activity | agonist or antagonist activity (glucocorticoid receptors): no agonist or antagonist activity | affinity for receptors [3]: nor was there any affinity | mutagenic or clastogenic potential [4]: no evidence of mutagenic or clastogenic potential | mutagenic or clastogenic potential (bone marrow): no evidence of mutagenic or clastogenic potential | adverse effects on maternal or litter parameters (pregnant rats): no adverse effects on maternal or litter parameters | adverse effects on maternal or litter parameters (pregnant rabbits): no adverse effects on maternal or litter parameters | systemic exposure [5]: very low systemic exposure (below the limit of accurate quantitation) | macroscopic or microscopic changes in organs (mice of both sexes): no macroscopic or microscopic changes | mortality or adverse symptoms (mice of both sexes; 7-day period): no mortality or adverse symptoms | pathological changes (rats of both sexes): no pathological changes | changes in behavior (rats of both sexes; 8-day period): no changes in behavior | deaths, adverse clinical signs, physiological changes, clinical laboratory parameters (mice): no deaths or adverse clinical signs, no physiological changes, or changes in clinical laboratory parameters | deaths, adverse clinical signs, physiological changes, clinical laboratory parameters (rats [6]): no deaths or adverse clinical signs, no physiological changes, or changes in clinical laboratory parameters | deaths, adverse clinical signs, physiological changes, clinical laboratory parameters (rabbits): no deaths or adverse clinical signs, no physiological changes, or changes in clinical laboratory parameters | deaths, adverse clinical signs, physiological changes, clinical laboratory parameters (dogs [7]): no deaths or adverse clinical signs, no physiological changes, or changes in clinical laboratory parameters | deaths, adverse clinical signs, laboratory or pathology parameters (rats [8]): no deaths or adverse clinical signs or effects on laboratory or pathology parameters | deaths, adverse clinical signs, laboratory or pathology parameters (dogs [9]): no deaths or adverse clinical signs or effects on the laboratory or pathology parameters | change in heart rate ([10]; intranasal): did not produce statistically significant change | change in respiratory rate ([10]; intranasal): did not produce statistically significant change | duration of the QTC intervals of the electrocardiogram ([10]; intranasal): did not change | effect on alpha and beta frequency bands of electroencephalogram ([10]; intranasal): did not have significant effect | effect on body temperature ([10]; intranasal): did not have significant effect | frequency of electrodermal activity events (skin conductance) ([10]; intranasal): did significantly increase | tolerability ([10]; nasal administration): well tolerated | differences in clinical laboratory values, neuropsychological functioning, brain activity between doses or visits (healthy individuals; Phase 1): No statistically significant differences | differences in safety parameters between the three doses of each treatment group (healthy individuals; Phase 1): no statistically significant differences | most frequent adverse events (healthy individuals; [13]): increased appetite, and dizziness in the high dose group | serious adverse events (healthy individuals; [13]): no serious adverse events | serious adverse events ([11]; Phase 2, any of the groups): no serious adverse events reported | decrease in average HRSD-17 score from baseline (standard deviation) ([11]; high dose 6400 ng/day intranasal): 18.6 (8.7) | Cohen's d relative to placebo, HRSD-17 item 4 ([11]; high dose 6400 ng/day): 1.60 | Cohen's d relative to placebo, HRSD-17 score ([11]; high dose 6400 ng/day): 0.82 | decrease in HRSD-17 item 4 (initial insomnia) from baseline ([11]; high dose 6400 ng/day): 1.4 (0.25) | decrease in average HRSD-17 score from baseline (standard deviation) ([11]; low dose 3200 ng/day intranasal): 18.3 (7.7) | Cohen's d relative to placebo, HRSD-17 item 4 ([11]; low dose 3200 ng/day): 0.39 | Cohen's d relative to placebo, HRSD-17 score ([11]; low dose 3200 ng/day): 0.86 | decrease in HRSD-17 item 4 (initial insomnia) from baseline ([11]; low dose 3200 ng/day): 0.6 (0.3) | time to effect on a depressive disorder or its symptoms ([11]; nasal administration): ≤ 1 week

CN(C)CCC[C@@]1(c2ccc(F)cc2)OCc2cc(C#N)ccc21 [escitalopram]
rate of remission of the depression [12, 14]: 61.5% | remission of insomnia [12, 14]: 50.0% | rate of remission of the depression [12, 15]: 33.3% | remission of insomnia [12, 15]: 7.7%
